Experimental data published in patent US20260365628A1, “SUBSTITUTED 3,4-DIHYDROQUINOLINONE INHIBITORS OF TSHR” (Septerna, Inc., priority 2022, published 2026).

The compounds below were run against T1, hTSHR (Homo sapiens, UniProt P16473) (assay: hTSHR TR-FRET cAMP Assay (inhibition of M22-stimulated cAMP production)). Conditions: Expi293F Inducible cells stably expressing hTSHR; cAMP HTRF; stimulated with EC80 of anti-TSHR antibody M22; 15 min compound preincubation, 30 min at 37° C.; read-out: Activity (IC50 bins).
T1 construct: expressed in transfected cells
T1 sequence (P16473 21-764): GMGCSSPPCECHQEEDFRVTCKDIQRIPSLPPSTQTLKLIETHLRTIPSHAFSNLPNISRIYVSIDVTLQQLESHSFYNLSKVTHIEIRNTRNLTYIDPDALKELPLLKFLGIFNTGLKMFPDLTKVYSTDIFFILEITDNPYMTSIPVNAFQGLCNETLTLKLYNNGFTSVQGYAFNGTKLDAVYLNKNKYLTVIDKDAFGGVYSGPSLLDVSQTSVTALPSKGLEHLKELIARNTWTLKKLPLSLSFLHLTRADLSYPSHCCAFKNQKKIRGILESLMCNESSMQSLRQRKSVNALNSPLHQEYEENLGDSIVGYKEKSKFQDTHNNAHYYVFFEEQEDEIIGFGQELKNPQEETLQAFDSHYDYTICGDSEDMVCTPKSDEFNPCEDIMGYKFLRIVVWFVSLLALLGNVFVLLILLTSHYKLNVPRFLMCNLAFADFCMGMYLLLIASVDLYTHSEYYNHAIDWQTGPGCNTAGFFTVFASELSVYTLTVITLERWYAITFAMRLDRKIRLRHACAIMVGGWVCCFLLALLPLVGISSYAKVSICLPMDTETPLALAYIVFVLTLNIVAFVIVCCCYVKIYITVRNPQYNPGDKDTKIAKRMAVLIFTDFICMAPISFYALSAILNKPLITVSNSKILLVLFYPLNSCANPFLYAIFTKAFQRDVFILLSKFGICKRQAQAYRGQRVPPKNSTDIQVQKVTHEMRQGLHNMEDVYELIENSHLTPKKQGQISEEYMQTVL
Assay type: cell-based
In short: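 Readout was a cAMP HTRF ratio of 655/620 nm after lysis, scaled between the EC80 M22 signal (0% inhibition) and no-agonist vehicle (100%). Frozen induced Expi293F-hTSHR cells saw test compounds (0.5% DMSO) for 15 min at 37 °C before 30 min of M22 stimulation at EC80.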

Q: `C[C@H]1Oc2nc(NC(=O)NC(C)(C)C)c(Cl)cc2N(Cc2ccccc2)C1=O` [Example 355, 1-[(3R)-1-benzyl-7-chloro-3-methyl-2-oxo-3H-pyrido[2,3-b][1,4]oxazin-6-yl]-3-tert-butylurea] was tested. Which IC50 did it give?
A: 100 to 1000 nM

Q: `C[C@H]1Oc2c(cc(C(F)(F)F)c(NC(=O)NC(C)(C)C)c2F)N(Cc2cccc(C(F)F)c2)C1=O` [Example 356, (R)-1-(tert-butyl)-3-(4-(3-(difluoromethyl)benzyl)-8-fluoro-2-methyl-3-oxo-6-(trifluoromethyl)-3,4-dihydro-2H-benzo[b][1,4]oxazin-7-yl)urea] was tested. Which IC50 did it give?
A: 100 to 1000 nM

Q: For `C[C@@H](c1cccc(Cl)c1)n1c(=O)cnc2cc(NC(=O)NC(C)(C)C)c(F)cc21` [Example 357, (S)-1-(tert-butyl)-3-(1-(1-(3-chlorophenyl)ethyl)-7-fluoro-2-oxo-1,2-dihydroquinoxalin-6-yl) Urea], which IC50 is on record?
A: 100 to 1000 nM

Q: With `C[C@@H](c1cccc(Cl)c1)n1c(=O)cnc2cc(NC(=O)NC(C)(C)C)c(C(F)(F)F)cc21` [Example 358, 3-tert-butyl-1-{1-[(1S)-1-(3-chlorophenyl)ethyl]-2-oxo-7-(trifluoromethyl)quinoxalin-6-yl}urea] as the compound, how does the IC50 read?
A: 100 to 1000 nM

Q: How did the IC50 turn out when `C[C@@H](c1cccc(OC(F)(F)F)c1)n1c(=O)cnc2cc(NC(=O)OC3CCCC3)ccc21` [Example 359, cyclopentyl (S)-(2-oxo-1-(1-(3-(trifluoromethoxy)phenyl)ethyl)-1,2-dihydroquinoxalin-6-yl)carbamate] was run?
A: < 100 nM

Q: With `C[C@@H](c1ccccc1)n1c(=O)cnc2cc(NC(=O)NC(C)(C)C)c(CO)cc21` [Example 360, (S)-1-(tert-butyl)-3-(7-(hydroxymethyl)-2-oxo-1-(1-phenylethyl)-1,2-dihydroquinoxalin-6-yl)urea] as the compound, how does the IC50 read?
A: > 1000 nM

Q: With `C[C@@H](c1cccc(Cl)c1)n1c(=O)cnc2cc(NC(=O)NC(C)(C)C)c(C#N)cc21` [Example 361, 3-tert-butyl-1-{1-[(1S)-1-(3-chlorophenyl)ethyl]-7-cyano-2-oxoquinoxalin-6-yl}urea] as the compound, how does the IC50 read?
A: 100 to 1000 nM

Q: Which IC50 does the source give for `C[C@H]1Oc2nc(NC(=O)NC(C)(C)C)c(C#N)cc2N(Cc2ccccc2)C1=O` [Example 362, 1-[(3R)-1-benzyl-7-cyano-3-methyl-2-oxo-3H-pyrido[2,3-b][1,4]oxazin-6-yl]-3-tert-butylurea] here?
A: 100 to 1000 nM

Q: For `C[C@@H](c1cc(Cl)ccc1Cl)n1c(=O)cnc2cc(NC(=O)NC(C)(C)C)c(C#N)cc21` [Example 363, (S)-1-(tert-butyl)-3-(7-cyano-1-(1-(2,5-dichlorophenyl)ethyl)-2-oxo-1,2-dihydroquinoxalin-6-yl) urea], which IC50 is on record?
A: 100 to 1000 nM

Q: Which IC50 does the source give for `C[C@@H](c1cc(Cl)ccc1F)n1c(=O)cnc2cc(NC(=O)NC(C)(C)C)c(C#N)cc21` [Example 364, 3-tert-butyl-1-{1-[(1S)-1-(5-chloro-2-fluorophenyl)ethyl]-7-cyano-2-oxoquinoxalin-6-yl}urea] here?
A: 100 to 1000 nM

Q: Which IC50 does the source give for `C[C@@H](c1cc(Cl)ccc1Cl)n1c(=O)cnc2cc(NC(=O)NC(C)(C)C)c(Cl)cc21` [Example 365, (S)-1-(tert-butyl)-3-(7-chloro-1-(1-(2,5-dichlorophenyl)ethyl)-2-oxo-1,2-dihydroquinoxalin-6-yl)urea] here?
A: < 100 nM

Q: `C[C@H]1Oc2cc(NC(=O)NC(C)(C)C)c(C#N)cc2N([C@@H](C)c2ccccc2)C1=O` [Example 366, 1-(tert-butyl)-3-((R)-6-cyano-2-methyl-3-oxo-4-((S)-1-phenylethyl)-3,4-dihydro-2H-benzo[b][1,4]oxazin-7-yl)urea] was tested. Which IC50 did it give?
A: < 100 nM

Q: How did the IC50 turn out when `C[C@H]1Oc2cc(NC(=O)NC(C)(C)C)c(C#N)cc2N(Cc2cc(Cl)ccc2Cl)C1=O` [Example 367, 3-tert-butyl-1-[(2R)-6-cyano-4-[(2,5-dichlorophenyl)methyl]-2-methyl-3-oxo-2H-1,4-benzoxazin-7-yl]urea] was run?
A: 100 to 1000 nM

Q: With `C[C@H]1Oc2nc(NC(=O)NC(C)(C)C)c(C(F)(F)F)cc2N(Cc2ccccc2)C1=O` [Example 368, (R)-1-(1-benzyl-3-methyl-2-oxo-7-(trifluoromethyl)-2,3-dihydro-1H-pyrido[2,3-b][1,4]oxazin-6-yl)-3-(tert-butyl)urea] as the compound, how does the IC50 read?
A: < 100 nM
